Measurements published in patent publication US8258215B2, “Mixed alkyl-alkylaryl-phenyl phosphite polymer additive” (Dover Chemical Corporation, priority 2010, dated 2012).
Like-named read-outs stand apart in the source and are kept apart here.

Key:
[1] = LLDPE; 900 ppm phosphite + 500 ppm Dovernox 76
Experimental: (§1) The polyolefin powder (polyethylene, polypropylene or high density polyethylene) is dry blended with the stabilizer formulation using a Waring blender. […] The masterbatch is then added to a preheated co-rotating twin screw extruder where the plastic is homogeneously mixed. Extrusion is typically performed at 260° C. for polyethylene (LLDPE) and polypropylene (PP) and at 250° C. for high density polyethylene (HDPE). The extruded plastic is cooled into a cold water bath, completely dried, and pelletized. The collected polymer pellets are the result of the first pass extrusion and are the starting material for all subsequent test protocols. The isolated pellets are added to the extruder repeatedly to generate the third and fifth pass material.
(§2) Color analysis was performed on compression molded films or plaques with a Hunter Lab Ulstrascan XE machine. Observations were made with a D65 illuminant and 10° observer. Yellowness Index measurements were made in accord with ASTM D1925-70.

[2] = LLDPE; for High load Melt Flow Stability, 1st pass / High load Melt Flow Stability, 3rd pass / High load Melt Flow Stability, 5th pass: 190° C. (21.6 Kg), 900 ppm phosphite + 500 ppm Dovernox 76; for maintaining melt flow stability, in words: compared with TNPP (Table III)
Experimental: as §1
(§3) The melt flow rate was performed using the ASTM 1238-90b test method measured at 21.6 Kg/190° C. for LLDPE and HDPE compositions and at 2.16 Kg/230° C. for the PP compositions. The melt flow rate was complete on a Tinius Olsen extrusion plastometer.

[3] = PP; phosphite 900 ppm
Experimental: as §1, §2

[4] = HDPE; 190° C. (21.6 Kg); phosphite 900 ppm
Experimental: as §1, §3

[5] = PP; 230° C. (21.6 Kg); phosphite 900 ppm
Experimental: as §1, §3

[6] = HDPE; 230° C.; phosphite 900 ppm
Experimental: as §1, §2

estrogenic activity = assay: Estrogenic activity by in-vivo testing

Mixed C12-14 Alkyl, 2,4-dicumylphenyl Phosphite [Example 10]
YI (Yellowness Index) Color Stability, 1st pass [1]: −6.1
YI (Yellowness Index) Color Stability, 3rd pass [1]: −3.8
YI (Yellowness Index) Color Stability, 5th pass [1]: −2.4
High load Melt Flow Stability, 1st pass [2]: 18.3
High load Melt Flow Stability, 3rd pass [2]: 15.5
High load Melt Flow Stability, 5th pass [2]: 13.5

Mixed C16-18 alkyl, p-cumylphenyl phosphite [Example 6]
YI (Yellowness Index) Color Stability, 1st pass [1]: −3.8
YI (Yellowness Index) Color Stability, 3rd pass [1]: −1.1
YI (Yellowness Index) Color Stability, 5th pass [1]: 1.5
High load Melt Flow Stability, 1st pass [2]: 18.7
High load Melt Flow Stability, 3rd pass [2]: 15.7
High load Melt Flow Stability, 5th pass [2]: 13.6

Mixed C12-14 alkyl, p-cumylphenyl phosphite [Example 2]
Color Stability (YI), 1st pass [3]: 7.2
Color Stability (YI), 3rd pass [3]: 10.4
YI (Yellowness Index) Color Stability, 1st pass [1]: −5.4
YI (Yellowness Index) Color Stability, 3rd pass [1]: −3.5
YI (Yellowness Index) Color Stability, 5th pass [1]: −1.5
High load Melt Flow Stability, 1st pass [4]: 22.7
High load Melt Flow Stability, 3rd pass [4]: 22.2
High load Melt Flow Stability, 5th pass [4]: 17.2
High load Melt Flow Stability, 1st pass [5]: 24.2
High load Melt Flow Stability, 3rd pass [5]: 33.7
High load Melt Flow Stability, 5th pass [5]: 37.9
High load Melt Flow Stability, 1st pass [2]: 17.7
High load Melt Flow Stability, 3rd pass [2]: 15.7
High load Melt Flow Stability, 5th pass [2]: 14.0
maintaining melt flow stability, in words [2]: performed exceptionally well
Color Stability (YI), 1st pass [6]: 1.2
Color Stability (YI), 3rd pass [6]: 5.9
Color Stability (YI), 5th pass [6]: 10.2

tris(nonylphenyl)phosphite [TNPP, reference compound]
Color Stability (YI), 1st pass [3]: 14.8
Color Stability (YI), 3rd pass [3]: 15.1
YI (Yellowness Index) Color Stability, 1st pass [1]: −3.7
YI (Yellowness Index) Color Stability, 3rd pass [1]: −1.7
YI (Yellowness Index) Color Stability, 5th pass [1]: 0.4
High load Melt Flow Stability, 1st pass [4]: 22.7
High load Melt Flow Stability, 3rd pass [4]: 22.5
High load Melt Flow Stability, 5th pass [4]: 18.5
High load Melt Flow Stability, 1st pass [5]: 21.4
High load Melt Flow Stability, 3rd pass [5]: 30.0
High load Melt Flow Stability, 5th pass [5]: 37.0
High load Melt Flow Stability, 1st pass [2]: 18.1
High load Melt Flow Stability, 3rd pass [2]: 16.1
High load Melt Flow Stability, 5th pass [2]: 14.4
Color Stability (YI), 1st pass [6]: −0.4
Color Stability (YI), 3rd pass [6]: 4.9
Color Stability (YI), 5th pass [6]: 9.3

Mixed C12-18 alkyl, p-cumylphenyl phosphite [Example 7]
Color Stability (YI), 1st pass [3]: 7.0
Color Stability (YI), 3rd pass [3]: 10.0
YI (Yellowness Index) Color Stability, 1st pass [1]: −5.5
YI (Yellowness Index) Color Stability, 3rd pass [1]: −3.6
YI (Yellowness Index) Color Stability, 5th pass [1]: −1.5
High load Melt Flow Stability, 1st pass [4]: 23.6
High load Melt Flow Stability, 3rd pass [4]: 22.2
High load Melt Flow Stability, 5th pass [4]: 17.1
High load Melt Flow Stability, 1st pass [5]: 24.2
High load Melt Flow Stability, 3rd pass [5]: 34.2
High load Melt Flow Stability, 5th pass [5]: 44.4
High load Melt Flow Stability, 1st pass [2]: 18.5
High load Melt Flow Stability, 3rd pass [2]: 16.1
High load Melt Flow Stability, 5th pass [2]: 14.6
maintaining melt flow stability, in words [2]: performed exceptionally well
Color Stability (YI), 1st pass [6]: −0.6
Color Stability (YI), 3rd pass [6]: 1.4
Color Stability (YI), 5th pass [6]: 6.4

CC(C)(c1ccccc1)c1ccc(O)cc1 [para-cumylphenol]
estrogenic activity compared with nonylphenol (estrogenic activity): does not show comparable estrogenic activity to nonylphenol

Mixed C18 alkenyl, p-cumylphenyl phosphite [Example 4]
YI (Yellowness Index) Color Stability, 1st pass [1]: −5.8
YI (Yellowness Index) Color Stability, 3rd pass [1]: −3.8
YI (Yellowness Index) Color Stability, 5th pass [1]: −1.4
High load Melt Flow Stability, 1st pass [2]: 18.1
High load Melt Flow Stability, 3rd pass [2]: 14.8
High load Melt Flow Stability, 5th pass [2]: 13.4

Mixed C10 alkyl, p-cumylphenyl phosphite [Example 3]
YI (Yellowness Index) Color Stability, 1st pass [1]: −4.2
YI (Yellowness Index) Color Stability, 3rd pass [1]: −2.9
YI (Yellowness Index) Color Stability, 5th pass [1]: −1.1
High load Melt Flow Stability, 1st pass [2]: 17.1
High load Melt Flow Stability, 3rd pass [2]: 13.4
High load Melt Flow Stability, 5th pass [2]: 12.2
